Test system: promyelocytic leukemia cell strain HL-60
Experiment: Cell differentiation inducing activity of retinoids on HL-60 in presence/absence of test compound (NBT reduction)
Assay type: cell-based
Description: The effects of the compounds of the above Examples 1 and 2 on cell differentiation induced by retinoids were studied. As retinoid compounds (i.e., agonists against the all-trans retinoic acid receptor), retinoic acid and Am80 (4-[(5,6,7,8-tetrahydro-5,5,8,8-tetramethyl-2-naphthalenyl)carbamoyl]benzoic acid) were used. Cell differentiation inducing activities of the above retinoids on promyelocytic leukemia cell strain HL-60 were measured in the presence and absence of the compounds of Examples 1 and 2 according to the method described in the Japanese Patent Unexamined Publication (KOKAI) No.(Sho)61-76440/1986. The degrees of the differentiation into granulocytic cell were determined by observing nuclear morphologies and measuring abilities to reduce nitroblue tetrazolium (NBT). This method is well known in the art as a test that enables accurate evaluation of the cell differentiation inducing activity of retinoids. The results are shown in the Table 2 set out below (in the table, NTB positive ratio represents a percent value of differentiated cells based on living cells).
Effect of the compound of Example 10 (HX801) on the cell differentiation inducing activity by a retinoid was examined. Am80 was used as the retinoid compound and the cell differentiation inducing activity of the above retinoid on promyelocytic leukemia cell strain HL-60 was determined in the presence or absence of the compound of HX801 in the same manner as Example 15. The results are shown in the Table 3 set out below (in the table, the symbol “-” indicates no addition).

Q: Which results are given for `CC1(C)CCC(C)(C)c2cc(NC(=O)c3ccc(C(=O)O)cc3)ccc21` [Am80, 4-[(5,6,7,8-tetrahydro-5,5,8,8-tetramethyl-2-naphthalenyl)carbamoyl]benzoic acid, reference compound]?
A: NBT positive ratio (Am80 1.0 × 10^−8 M alone, test compound absent (HX600 series)): 55%; NBT positive ratio (Am80 1.0 × 10^−8 M alone, test compound absent (LE135 series)): 55%; NBT positive ratio (Am80 1.1 × 10^−9 M alone, test compound absent (HX600 series)): 44%; NBT positive ratio (Am80 1.1 × 10^−9 M alone, test compound absent (LE135 series)): 35%; NBT positive ratio (Am80 3.3 × 10^−9 M alone, test compound absent (HX600 series)): 53%; NBT positive ratio (Am80 3.3 × 10^−9 M alone, test compound absent (LE135 series)): 51%; NBT positive ratio (Am80 3.7 × 10^−10 M alone, test compound absent (HX600 series)): 15%; NBT positive ratio (Am80 3.7 × 10^−10 M alone, test compound absent (LE135 series)): 21%; NBT positive ratio (Table 3: Am80 1.0 × 10^−9 M alone, no HX801): 48%; NBT positive ratio (Table 3: Am80 1.1 × 10^−10 M alone, no HX801): 5%; NBT positive ratio (Table 3: Am80 1.2 × 10^−11 M alone, no HX801): 0.6%; NBT positive ratio (Table 3: Am80 3.3 × 10^−10 M alone, no HX801): 30%; NBT positive ratio (Table 3: Am80 3.7 × 10^−11 M alone, no HX801): 3%

Q: For `CN1c2ccccc2N=C(c2ccc(C(=O)O)cc2)c2cc3c(cc21)C(C)(C)CCC3(C)C` [HX600, 4-[5H-2,3-(2,5-dimethyl-2,5-hexano)-5-methyldibenzo-[b,e][1,4]diazepine-11-yl]benzoic acid], which NBT positive ratio (Am80 1.0 × 10^−8 M + test compound 1.0 × 10^−6 M (HX600 series)) is on record?
A: Its NBT positive ratio is 95%.

Q: And the NBT positive ratio (Am80 1.0 × 10^−8 M + test compound 1.0 × 10^−7 M)?
A: The NBT positive ratio was 91%.

Q: What about the NBT positive ratio (Am80 1.0 × 10^−8 M + test compound 1.0 × 10^−8 M) of the same compound?
A: Its NBT positive ratio is 80%.

Q: And the NBT positive ratio (Am80 1.0 × 10^−8 M + test compound 1.0 × 10^−9 M)?
A: The NBT positive ratio was 69%.

Q: And the NBT positive ratio (Am80 1.1 × 10^−9 M + test compound 1.0 × 10^−6 M (HX600 series))?
A: Its NBT positive ratio is 93%.

Q: What about the NBT positive ratio (Am80 1.1 × 10^−9 M + test compound 1.0 × 10^−7 M) of the same compound?
A: The NBT positive ratio was 90%.

Q: And the NBT positive ratio (Am80 1.1 × 10^−9 M + test compound 1.0 × 10^−8 M)?
A: Its NBT positive ratio is 65%.

Q: What about the NBT positive ratio (Am80 1.1 × 10^−9 M + test compound 1.0 × 10^−9 M) of the same compound?
A: Its NBT positive ratio is 48%.

Q: What about the NBT positive ratio (Am80 3.3 × 10^−9 M + test compound 1.0 × 10^−6 M (HX600 series)) of the same compound?
A: The NBT positive ratio was 93%.

Q: What about the NBT positive ratio (Am80 3.3 × 10^−9 M + test compound 1.0 × 10^−7 M) of the same compound?
A: The NBT positive ratio was 93%.

Q: What about the NBT positive ratio (Am80 3.3 × 10^−9 M + test compound 1.0 × 10^−8 M) of the same compound?
A: The NBT positive ratio was 73%.

Q: And the NBT positive ratio (Am80 3.3 × 10^−9 M + test compound 1.0 × 10^−9 M)?
A: The NBT positive ratio was 64%.

Q: And the NBT positive ratio (Am80 3.7 × 10^−10 M + test compound 1.0 × 10^−6 M (HX600 series))?
A: The NBT positive ratio was 67%.

Q: And the NBT positive ratio (Am80 3.7 × 10^−10 M + test compound 1.0 × 10^−7 M)?
A: Its NBT positive ratio is 72%.

Q: And the NBT positive ratio (Am80 3.7 × 10^−10 M + test compound 1.0 × 10^−8 M)?
A: The NBT positive ratio was 41%.

Q: And the NBT positive ratio (Am80 3.7 × 10^−10 M + test compound 1.0 × 10^−9 M)?
A: The NBT positive ratio was 21%.

Q: And the NBT positive ratio (Retinoic acid 1.0 × 10^−8 M + test compound 1.0 × 10^−6 M)?
A: Its NBT positive ratio is 91%.

Q: What about the NBT positive ratio (Retinoic acid 1.0 × 10^−8 M + test compound 1.1 × 10^−7 M) of the same compound?
A: The NBT positive ratio was 91%.

Q: And the NBT positive ratio (Retinoic acid 1.0 × 10^−8 M + test compound 3.3 × 10^−7 M)?
A: Its NBT positive ratio is 91%.

Q: And the NBT positive ratio (Retinoic acid 1.1 × 10^−9 M + test compound 1.0 × 10^−6 M)?
A: Its NBT positive ratio is 69%.

Q: What about the NBT positive ratio (Retinoic acid 1.1 × 10^−9 M + test compound 1.1 × 10^−7 M) of the same compound?
A: Its NBT positive ratio is 68%.

Q: What about the NBT positive ratio (Retinoic acid 1.1 × 10^−9 M + test compound 3.3 × 10^−7 M) of the same compound?
A: The NBT positive ratio was 76%.

Q: And the NBT positive ratio (Retinoic acid 3.3 × 10^−9 M + test compound 1.0 × 10^−6 M)?
A: The NBT positive ratio was 90%.

Q: And the NBT positive ratio (Retinoic acid 3.3 × 10^−9 M + test compound 1.1 × 10^−7 M)?
A: The NBT positive ratio was 86%.

Q: What about the NBT positive ratio (Retinoic acid 3.3 × 10^−9 M + test compound 3.3 × 10^−7 M) of the same compound?
A: The NBT positive ratio was 90%.

Q: For `CC1(C)CCC(C)(C)c2cc3c(cc21)Cc1ccccc1N=C3c1ccc(C(=O)O)cc1` [HX640, 4-[2,3-(2,5-dimethyl-2,5-hexano)-dibenzo[b,e]azepine-11-yl]benzoic acid], which NBT positive ratio (Am80 1.1 × 10^−10 M + test compound 1.0 × 10^−7 M) is on record?
A: Its NBT positive ratio is 69%.

Q: And the NBT positive ratio (Am80 1.1 × 10^−10 M + test compound 1.0 × 10^−8 M)?
A: Its NBT positive ratio is 24%.

Q: What about the NBT positive ratio (Am80 1.1 × 10^−10 M + test compound 1.0 × 10^−9 M) of the same compound?
A: The NBT positive ratio was 5%.

Q: And the NBT positive ratio (Am80 1.1 × 10^−10 M + test compound 1.0 × 10^−10 M)?
A: The NBT positive ratio was 7%.

Q: What about the NBT positive ratio (Am80 3.3 × 10^−10 M + test compound 1.0 × 10^−6 M) of the same compound?
A: Its NBT positive ratio is 85%.

Q: And the NBT positive ratio (Am80 3.3 × 10^−10 M + test compound 1.0 × 10^−7 M)?
A: The NBT positive ratio was 89%.

Q: What about the NBT positive ratio (Am80 3.3 × 10^−10 M + test compound 1.0 × 10^−8 M) of the same compound?
A: Its NBT positive ratio is 75%.

Q: What about the NBT positive ratio (Am80 3.3 × 10^−10 M + test compound 1.0 × 10^−9 M) of the same compound?
A: Its NBT positive ratio is 46%.

Q: And the NBT positive ratio (Am80 3.3 × 10^−10 M + test compound 1.0 × 10^−10 M)?
A: Its NBT positive ratio is 44%.

Q: What does the source list for `CN1C(=O)CN=C(c2ccc(C(=O)O)cc2)c2cc3c(cc21)C(C)(C)CCC3(C)C` [HX801, 4-[1,3-dihydro-7,8-(2,5-dimethyl-2,5-hexano)-1-methyl-2-oxo-2H-1,4-benzodiazepine-5-yl]benzoic acid]?
A: NBT positive ratio (Table 3: Am80 1.0 × 10^−9 M + HX801 1.0 × 10^−6 M): 77%; NBT positive ratio (Table 3: Am80 1.0 × 10^−9 M + HX801 1.1 × 10^−7 M): 63%; NBT positive ratio (Table 3: Am80 1.0 × 10^−9 M + HX801 3.3 × 10^−7 M): 76%; NBT positive ratio (Table 3: Am80 1.1 × 10^−10 M + HX801 1.0 × 10^−6 M): 48%; NBT positive ratio (Table 3: Am80 1.1 × 10^−10 M + HX801 1.1 × 10^−7 M): 22%; NBT positive ratio (Table 3: Am80 1.1 × 10^−10 M + HX801 3.3 × 10^−7 M): 28%; NBT positive ratio (Table 3: Am80 1.2 × 10^−11 M + HX801 1.0 × 10^−6 M): 2%; NBT positive ratio (Table 3: Am80 1.2 × 10^−11 M + HX801 1.1 × 10^−7 M): 1.4%; NBT positive ratio (Table 3: Am80 1.2 × 10^−11 M + HX801 3.3 × 10^−7 M): 2%; NBT positive ratio (Table 3: Am80 3.3 × 10^−10 M + HX801 1.0 × 10^−6 M): 71%; NBT positive ratio (Table 3: Am80 3.3 × 10^−10 M + HX801 1.1 × 10^−7 M): 49%; NBT positive ratio (Table 3: Am80 3.3 × 10^−10 M + HX801 3.3 × 10^−7 M): 55%; NBT positive ratio (Table 3: Am80 3.7 × 10^−11 M + HX801 1.0 × 10^−6 M): 4.4%; NBT positive ratio (Table 3: Am80 3.7 × 10^−11 M + HX801 1.1 × 10^−7 M): 4%; NBT positive ratio (Table 3: Am80 3.7 × 10^−11 M + HX801 3.3 × 10^−7 M): 2.3%; NBT positive ratio (Table 3: HX801 1.0 × 10^−6 M alone, no Am80): 1.1%; NBT positive ratio (Table 3: HX801 1.1 × 10^−7 M alone, no Am80): 1.1%; NBT positive ratio (Table 3: HX801 3.3 × 10^−7 M alone, no Am80): 0.3%

Q: For `CN1c2cc3c(cc2N=C(c2ccc(C(=O)O)cc2)c2ccccc21)C(C)(C)CCC3(C)C` [LE135, 4-(5H-7,8,9,10-tetrahydro-5,7,7,10,10-pentamethylbenzo[e]naphto[2,3-b][1,4]diazepin-13-yl)benzoic acid, reference compound], which NBT positive ratio (Am80 1.0 × 10^−8 M + test compound 1.0 × 10^−6 M (LE135 series)) is on record?
A: Its NBT positive ratio is 34%.

Q: What about the NBT positive ratio (Am80 1.0 × 10^−8 M + test compound 1.1 × 10^−7 M) of the same compound?
A: Its NBT positive ratio is 62%.

Q: And the NBT positive ratio (Am80 1.0 × 10^−8 M + test compound 3.3 × 10^−7 M)?
A: The NBT positive ratio was 51%.

Q: And the NBT positive ratio (Am80 1.1 × 10^−9 M + test compound 1.0 × 10^−6 M (LE135 series))?
A: The NBT positive ratio was 2%.

Q: And the NBT positive ratio (Am80 1.1 × 10^−9 M + test compound 1.1 × 10^−7 M)?
A: The NBT positive ratio was 23%.

Q: What about the NBT positive ratio (Am80 1.1 × 10^−9 M + test compound 3.3 × 10^−7 M) of the same compound?
A: The NBT positive ratio was 5%.

Q: And the NBT positive ratio (Am80 3.3 × 10^−9 M + test compound 1.0 × 10^−6 M (LE135 series))?
A: Its NBT positive ratio is 14%.

Q: What about the NBT positive ratio (Am80 3.3 × 10^−9 M + test compound 1.1 × 10^−7 M) of the same compound?
A: Its NBT positive ratio is 54%.

Q: What about the NBT positive ratio (Am80 3.3 × 10^−9 M + test compound 3.3 × 10^−7 M) of the same compound?
A: Its NBT positive ratio is 32%.

Q: What about the NBT positive ratio (Am80 3.7 × 10^−10 M + test compound 1.0 × 10^−6 M (LE135 series)) of the same compound?
A: The NBT positive ratio was 1.3%.

Q: What about the NBT positive ratio (Am80 3.7 × 10^−10 M + test compound 1.1 × 10^−7 M) of the same compound?
A: The NBT positive ratio was 3%.

Q: And the NBT positive ratio (Am80 3.7 × 10^−10 M + test compound 3.3 × 10^−7 M)?
A: The NBT positive ratio was 1.2%.

Q: And the “cell differentiation inducing activity of Am80” value (compound coexisting with Am80)?
A: The value was “significantly suppressed”.

Q: What does the source list for `CC1=C(/C=C/C(C)=C/C=C/C(C)=C/C(=O)O)C(C)(C)CCC1` [Retinoic acid, retinoic acid, reference compound]?
A: NBT positive ratio (Retinoic acid 1.0 × 10^−8 M alone, test compound absent): 54%; NBT positive ratio (Retinoic acid 1.1 × 10^−9 M alone, test compound absent): 14%; NBT positive ratio (Retinoic acid 3.3 × 10^−9 M alone, test compound absent): 36%

From patent US6476017B2, “Compounds activating pharmacological effect of retinoids” (Institute of Medicinal Molecular Design, Inc., priority 1995, dated 2002)
